Reference: PMC12142043, “Cell-based high-content approach for SARS-CoV-2 neutralization identifies unique monoclonal antibodies and PI3K pathway inhibitors” (Frontiers in Cell and Developmental Biology, 2025)
Like-named read-outs stand apart in the source and are kept apart here.

Tests used:
Calu-3 cells = assay: cells; details: Homo sapiens, Calu-3, read-out: EC50 (μM) Cell count
[1] = system: SARS-CoV-2 (USA-WA1/2020) in Calu-3 cells; format: cell-based
[2] = system: SARS-CoV-2 (USA-WA1/2020) in Calu-3 cells; assay: microbe, parasite or virus in culture; format: cell-based; details: for EC50: Severe acute respiratory syndrome coronavirus 2, Calu-3, 48 h, read-out: EC50 (μM) dsRNA
[3] = high dose (10 µM), Calu-3, 48 h
[4] = low dose (100 nM), Calu-3, 48 h
[5] = […], above 30 μM reported as >30
[6] = fold: cell count EC50 over dsRNA EC50

| Compound | EC50 (Calu-3 cells) | dsRNA signal, AU High [1, 3] | dsRNA signal, AU Low [1, 4] | also measured |
| --- | --- | --- | --- | --- |
| COCCOc1cnc2ccn([C@H](C)c3nnc4c(F)cc(-c5cnn(C)c5)cn34)c(=O)c2c1 [AMG 337, reference compound] | > 30 µM | 6788.1 AU | 33845.4 AU | EC50 (μM) dsRNA [2, 5]: None |
| O=C(NC1CCNCC1)c1[nH]ncc1NC(=O)c1c(Cl)cccc1Cl [AT7519] | 0.646 µM | 23488.0 AU | 46607.1 AU | EC50 [2, 5]: 1.23 µM; Selectivity index [2, 6]: 0.525 |
| CC[C@H](Nc1ncnc2[nH]cnc12)c1nc2cccc(F)c2c(=O)n1-c1ccccc1 [CAL-101] | > 30 µM | 57616.6 AU | 3708.3 AU | EC50 [2, 5]: 0.0521 µM; Selectivity index [2, 6]: >575 |
| N#CCNC(=O)c1ccc(-c2ccnc(Nc3ccc(N4CCOCC4)cc3)n2)cc1 [CYT387] | 2.41 µM | 36485.3 AU | 15837.3 AU | EC50 [2, 5]: 0.0276 µM; Selectivity index [2, 6]: 87.486 |
| O=S(=O)(c1cccc2cnccc12)N1CCCNCC1 [Fasudil] | 1.22 µM |  |  | EC50 [2, 5]: 0.0124 µM; Selectivity index [2, 6]: 98.072 |
| CC(C)NC[C@@H](C(=O)N1CCN(c2ncnc3c2[C@H](C)C[C@H]3O)CC1)c1ccc(Cl)cc1 [GDC-0068, reference compound] | > 30 µM | 10110.1 AU | 18551.4 AU | EC50 [2, 5]: > 30 µM |
| O=c1c(-c2ccc(O)cc2)coc2cc(O)cc(O)c12 [Genistein, reference compound] | > 30 µM | 5526.1 AU | 19461.3 AU | EC50 (μM) dsRNA [2, 5]: None |
| O=C1Nc2ccccc2/C1=C1/Nc2ccccc2C1=O [Indirubin] | > 30 µM |  |  | Selectivity index [2]: >26; EC50 [2]: 1.14 µM |
| Cc1ccc(F)c(NC(=O)Nc2ccc(-c3cccc4[nH]nc(N)c34)cc2)c1 [Linifanib] | > 30 µM | 6252.9 AU | 21480.2 AU | EC50 [2, 5]: 20.5 µM; Selectivity index [2, 6]: >1.4 |
| C[C@@H](NC(=O)c1ncnc(N)c1Cl)c1ncc(C(=O)Nc2cc(C(F)(F)F)c(Cl)cn2)s1 [MLN 2480] | > 30 µM |  |  | EC50 [2, 5]: 0.0998 µM; Selectivity index [2, 6]: >300 |
| CN1CCN(c2ccc(OC(F)(F)F)c(Nc3ncc4c(n3)-c3c(c(C(N)=O)nn3CCO)CC4)c2)CC1 [NMS-1286937] | 0.0916 µM | 5848.8 AU | 38547.7 AU | EC50 [2, 5]: 17.8 µM; Selectivity index [2, 6]: 0.005 |
| CNC(=O)c1cc(Oc2ccc(NC(=O)Nc3ccc(Cl)c(C(F)(F)F)c3)c(F)c2)ccn1 [Regorafenib monohydrate] | > 30 µM | 7085.4 AU | 14285.8 AU | EC50 [2, 5]: 6.46 µM; Selectivity index [2, 6]: >4 |
| Cn1c(=O)c(F)c(Nc2ccc(I)cc2F)c2c(=O)n(C[C@@H](O)CO)cnc21 [TAK-733, reference compound] | > 30 µM | 15107.2 AU | 14755.9 AU | EC50 [2, 5]: > 30 µM |
| O=C1NC(=O)[C@@H](c2cn3c4c(cccc24)CCC3)[C@@H]1c1c[nH]c2ccccc12 [Tivantinib] | 2.21 µM | 46631.5 AU | 19485.6 AU | EC50 [2, 5]: > 30 µM; Selectivity index [2, 6]: <.07 |
| CC(=O)Nc1cccc(-n2c(=O)n(C3CC3)c(=O)c3c(Nc4ccc(I)cc4F)n(C)c(=O)c(C)c32)c1 [Trametinib] | > 30 µM | 36456.5 AU | 10541.3 AU | EC50 [2, 5]: 0.398 µM; Selectivity index [2, 6]: >75 |
| O.O.O.O=C(O)c1ncccc1O.O=C(O)c1ncccc1O.[O]=[V] [VO-Ohpic trihydrate] |  | 28838.2 AU | 7631.3 AU |  |
| CCOC(=O)C1=C[C@]2(CC)CCCN3CCc4c(n1c1ccccc41)[C@@H]32 [Vinpocetine] | > 30 µM | 5212.2 AU | 19993.1 AU | EC50 [2, 5]: 25.7 µM; Selectivity index [2, 6]: >1 |
| c1cncc(CN2CCC(n3ncc4c(N5CCOCC5)nc(-c5ccc6[nH]ccc6c5)nc43)CC2)c1 [WAY-600] |  | 1003.4 AU | 67106.4 AU |  |
| COc1cc2ncnc(Nc3ccc(O)c(Br)c3)c2cc1OC [WHI-P154] |  | 5163.1 AU | 0.0 AU |  |
| CNC(=O)Nc1ccc(-c2nc(N3CC4CCC(C3)O4)c3cnn(C4CCC5(CC4)OCCO5)c3n2)cc1 [WYE-125132 (WYE-132)] |  | 4894.7 AU | 21738.1 AU |  |
| C=CC(=O)Nc1cccc(Oc2nc(Nc3ccc(N4CCN(C)CC4)cc3)ncc2Cl)c1 [WZ3146] |  | 23148.6 AU | 16337.5 AU |  |
| CCC(=O)Nc1cccc(Oc2nc(Nc3ccc(N4CCN(C)CC4)cc3OC)ncc2Cl)c1 [WZ4003] |  | 30589.4 AU | 38446.0 AU |  |
| COc1cc(O)c2c(c1)oc(=O)c1c3cc(O)c(O)cc3oc21 [Wedelolactone] |  | 9001.4 AU | 16105.5 AU |  |

| Compound | EC50 (Calu-3 cells) | dsRNA signal, AU High [1, 3] | dsRNA signal, AU Low [1, 4] | also measured |
| --- | --- | --- | --- | --- |
| COc1ccc(Cl)c(Nc2nc3ccccc3nc2NS(=O)(=O)c2cccc(NC(=O)C(C)(C)N)c2)c1 [XL147] |  | 6847.8 AU | 47539.1 AU |  |
| Cc1c(C(=O)N2CCOc3ccc(-c4ccc(N)nc4)cc3C2)ccc(S(C)(=O)=O)c1F [XL388] |  | 5203.5 AU | 16443.4 AU |  |
| CCOc1cc(N2CCC(O)CC2)ccc1Nc1ncc2c(n1)N(C)c1ccccc1C(=O)N2C [XMD8-92] |  | 359.5 AU | 30524.1 AU |  |
| C[C@@H](N)[C@H]1CC[C@H](C(=O)Nc2ccncc2)CC1 [Y-27632] |  | 3508.5 AU | 46665.7 AU |  |
| Cc1cc(C)nc(NS(=O)(=O)c2ccc(NC(=S)NC(=O)COc3ccc(Br)cc3Cl)cc2)n1 [ZCL278] |  | 9541.3 AU | 41590.0 AU |  |
| CC(C)N(CCC(=O)c1ccc2ccccc2c1)Cc1ccccc1.Cl [ZM 39923 HCl] |  | 21395.1 AU | 2858.2 AU |  |
| FC(F)c1nc2ccccc2n1-c1nc(N2CCOCC2)nc(N2CCOCC2)n1 [ZSTK474] |  | 6069.9 AU | 23073.5 AU |  |
| CO[C@H]1C[C@@H]2CC[C@@H](C)[C@@](O)(O2)C(=O)C(=O)N2CCCC[C@H]2C(=O)O[C@H]([C@H](C)C[C@@H]2CC[C@H](n3cnnn3)[C@H](OC)C2)CC(=O)[C@H](C)/C=C(\C)[C@@H](O)[C@@H](OC)C(=O)[C@H](C)C[C@H](C)/C=C/C=C/C=C/1C [Zotarolimus(ABT-578)] |  | 11435.6 AU | 1864.8 AU |  |
| AG-18 |  | 29672.3 AU | 14434.9 AU |  |
| AZD4547 |  | 14827.8 AU | 3634.0 AU |  |
| Anacardic acid |  | 12779.5 AU | 44703.4 AU |  |
| CHIR-98014 |  |  |  | dsRNA signal, AU High [1]: 63043.9; dsRNA signal, AU Low [1]: 37241.6 |
| Ginkgolide C |  | 4330.9 AU | 14963.6 AU |  |
| HG-10-102-01 |  | 14367.4 AU | 32713.5 AU |  |
| IC-87114 |  | 0.0 AU | 60540.6 AU |  |
| KN-92 |  | 8269.0 AU | 30018.5 AU |  |
| KN-93 |  | 14156.8 AU | 6603.8 AU |  |
| SC 79 |  | 17618.8 AU | 5138.7 AU |  |
| TA 01 |  | 672.4 AU | 13985.5 AU |  |
| Telatinib (BAY 57-9352) |  | 46565.4 AU | 19646.6 AU |  |
| VX-11e |  | 6059.4 AU | 11825.4 AU |  |
| kb NB 142-70 |  | 958.0 AU | 2847.9 AU |  |
